Measured values taken from patent US20030232801A1, “Identification of compounds for the treatment or prevention of proliferative diseases” (priority 2001, published 2003).

How the values were obtained:
[1] = test system: primary peripheral blood mononuclear cells (PBMCs); assay: Viability of PBMCs on administration of MES 51151 (FIG. 3); format: cell-based; settings: concentration of 10 μM
Procedure: (§1) FIG. 3 is a graph of the effect of administration of MES 51151 on the viability of 6D-2 cells and PBMCs.
(§2) Toxicity of the transfected cells increased with increased concentration of MES 51151 administered to the cells (FIG. 3, showing the percent viable 6D-2 cells compared to control cells). MES 51151 was administered to primary peripheral blood mononuclear cells (PBMCs) to test for its effect on cell toxicity. MES 51151 was not toxic to the PBMCs (FIG. 3, showing the percent viable PBMCs compared to control cells). The EC50 of MES 51151 when administered to the 6D-2 cancer cell line was less than 100 nM, yet MES 51151 was not toxic to PBMCs even when administered at a concentration of 10 μM. Therefore, the therapeutic index of MES 51151 is at least 100, and may be even higher. […] Thus, this compound may potentially be employed for the treatment or prevention of proliferative diseases, including cancer.

[2] = test system: MT-4 cells (adult human T-cell leukemia cells); assay: Cellular toxicity, MTS cell viability, MT-4 cells; format: cell-based; settings: Homo sapiens, MT4, 120 h, 5 day, MTS viability
Procedure: (§3) 6D-2 cells (MCF-7 human breast cancer cells stably transfected with luciferase linked to the 5′ and 3′UTRs of human HER2) were added to 96-well plates at 7500 cells per well in 200 μL medium and incubated for 24 hours at 100% humidity, 5% CO2, and 37° C. Compounds were diluted from DMSO stock solutions into medium and were added at various concentrations. The 6D-2 cells were incubated for 16 hours at which time the volume of medium in each well was reduced to 100 μL using a plate washer. 20 μL of MTS cell viability reagent (Promega, Madison, Wis.) was then added to each well, and the plates were incubated for 1-4 hours. A plate containing wells with 100 μL medium plus MTS reagent was prepared to determine the background reading. The plates were read on the Wallac 2 plate reader (PerkinElmer Life Science, Boston, Mass.) at 490 nm. Percent viability was calculated as (O.D. of compound treated cells−background O.D.)/(O.D. of DMSO treated cells−background O.D.)×100. MT-4 cells (adult human T-cell leukemia cells) were plated at 1.5×10^5 cells per well in 200 μL medium and incubated for at least one hour before the addition of compounds. The cells were incubated for 5 days at 100% humidity, 5% CO2, and 37° C. Cell viability was determined as described for 6D-2 cells.
(§4) Compounds of the invention containing a pyrrolidine substituent were tested for toxicity to cancerous and non-cancerous cells. 6D-2 cellular activity is representative of potency as an antitumor agent. MT-4 cellular activity is representative of general toxicity. A high IC50 for MT-4 cells and a low IC50 for 6D-2 cells is indicative of a compound of potential therapeutic use in treating or preventing proliferative diseases, such as cancer.

6D-2 cancer cell line = assay: Viability of 6D-2 cells on administration of MES 51151 (FIG. 3); format: cell-based, human
Procedure: as §1, §2

[3] = test system: luciferase reporter operatively linked to HER2 5′ and 3′UTRs; assay: HER2 UTR/luciferase reporter screening assay in stably transfected MCF7 (6D-2) cells; format: cell-based, human; settings: HER2 5′ and 3′UTR/luciferase reporter
Procedure: The HER2 UTR/reporter nucleic acid stably transfected cell system described above was used to identify compounds that either increased or decreased the level of HER2 translation efficiency. Small molecules from a library of candidate compounds (MES library, Message Pharmaceuticals, Malvern, Pa., containing, for example, small molecules from a commercially available Nanoscale Combinatorial Synthesis Inc. (Mountain View, Calif.) library) were administered to 6D-2 cells containing the stably transfected luciferase reporter nucleic acid sequence operatively linked to HER2 5′ and 3′UTRs to identify compounds that modulate HER2 translation efficiency. Each candidate compound was administered at a concentration of 10 μM.
After 16 hours of exposure to the compound, the level of luciferase protein activity was measured in candidate compound-treated cells containing the luciferase construct only, or in cells containing the luciferase/UTRs that were not treated with the candidate compound, or are treated with the candidate compound vehicle only (control cells), and compared to activity levels in candidate compound-treated cells containing the luciferase construct with the UTRs (test cells). […]

[4] = Cellular toxicity, MTS cell viability, 6D-2 cells; format: cell-based, human; settings: Homo sapiens, MCF7, MTS viability
Procedure: as §3, §4

SMILES: CC(=O)Nc1ccc(NC2=C(N3CCCC3)C(=O)c3ccccc3C2=O)cc1 [Example 2]
- Toxicity to PBMCs [1]: not toxic
- IC50 [2]: 80 nM
- Therapeutic index (6D-2 cancer cell line; 6D-2 EC50 versus non-toxic concentration in PBMCs): at least 100
- EC50 (6D-2 cancer cell line; Homo sapiens, 6D-2 cells, toxicity (percent viable cells compared to control), read-out: EC50 when administered to the 6D-2 cancer cell line): < 100 nM
- Luciferase activity [3]: reduced luciferase activity through toxicity
- IC50 [4]: 250 nM
